Test [1] relates to Cavia porcellus. Put plainly: Percent inhibition against antigen induced increase in intranasal pressure in actively sensitized guinea pig administered intravenously with 1 mg/Kg of compound. The format is functional.
Test [2] relates to Cavia porcellus. Put plainly: Percent inhibition against increase in specific airway resistance by antigen inhalation in conscious guinea pig administered perorally with 10 mg/Kg of compound, 1 hr before the test. The format is functional.
The subject of test [3] is Cavia porcellus. Description: Effective dose required to inhibit conjuctival microvascular permeability caused by topical application of 0.1% PGD-2 in guinea pig administered perorally with compound, 1 hour before the test. The format is functional.
Test [4] has as its system Cavia porcellus. Description: Effective dose required to inhibit conjuctival microvascular permeability caused by topical application of 0.1% antigen in guinea pig administered perorally with compound, 1 hour before the test. Type of test: functional.
Test [5] addresses T1, Prostaglandin D2 receptor (Homo sapiens, UniProt Q13258).
T1 sequence (Q13258 whole entry): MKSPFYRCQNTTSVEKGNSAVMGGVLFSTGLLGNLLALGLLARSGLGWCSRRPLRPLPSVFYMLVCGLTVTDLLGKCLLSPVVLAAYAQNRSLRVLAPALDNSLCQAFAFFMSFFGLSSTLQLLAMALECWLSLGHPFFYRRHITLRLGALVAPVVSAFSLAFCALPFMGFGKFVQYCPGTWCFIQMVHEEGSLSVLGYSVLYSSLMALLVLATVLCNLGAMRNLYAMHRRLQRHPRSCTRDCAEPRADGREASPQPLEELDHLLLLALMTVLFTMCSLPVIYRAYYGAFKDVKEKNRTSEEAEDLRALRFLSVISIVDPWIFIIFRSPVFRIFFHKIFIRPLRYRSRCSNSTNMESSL
Put plainly: Prostaglandin D2 receptor antagonist activity, evaluated by inhibition of [3H]PGD-2 binding to human platelet membranes.

In test [6] the target is T1, Prostaglandin D2 receptor. Put plainly: Concentration required to inhibit the PGD-2 evoked cAMP formation in human platelets. Type of test: functional. For orientation: Cyclic AMP is a second messenger, typically raised through Gs and lowered through Gi signalling.

On to `CC1(C)[C@H]2C[C@H](C/C=C/CCCC(=O)O)[C@@H](NC(=O)c3ccsc3)[C@@H]1C2`, for which the Inhibition (in general, how much of the control response was suppressed) in test [1] came out at 77%; in test [2], 15%. The ED50 (commonly the dose that gives a 50% effect, or the effect in half of the subjects) in test [3] stood at 3.5 mg/kg; in test [4], 9.5 mg/kg. For the same molecule, the values for the IC50 in test [5] and in test [6] were 1600 nM and 38 nM, respectively.

(Values after ChEMBL document CHEMBL1144892, “Synthesis and biological activity of various derivatives of a novel class of potent, selective, and orally active prostaglandin D2 receptor antagonists. 2. 6,6-Dimethylbicyclo[3.1.1]heptane derivatives” (J Med Chem, 2003).)
